Reference: patent US6136821A, “Naphthyridine derivatives” (Novartis AG, priority 1996, dated 2000)

Tests used:
human eosinophils = assay: Inhibition of eosinophil activation by formyl-MetLeuPhe (fMLP); oxidative burst (lucigenin chemiluminescence); assay type: cell-based; details: fMLP 1 μM, lucigenin 25 μM, purified human eosinophils
Experimental: Anti-inflammatory activity: Inhibition of eosinophil activation by formyl-MetLeuPhe (fMLP)
Purified human eosinophils (10^4 /well in 0.2 ml HBSS) are stimulated with fMLP (1 μM) in the presence of lucigenin (25 μM). Inhibition of the oxidative burst (measured as changes in chemiluminescence) is determined from dose response curves using the logistic equation.

Water solubility = assay type: physicochemical; details: N-methyl-D-glucamine salt

IC50 (human eosinophils) [nM] | water solubility (Water solubility) | SMILES
6 |  | Nc1cc2cccnc2c(-c2cccc3nonc23)n1 [Example 2, 6-amino-8-(4-benzo[c]furazanyl)-1,7-naphthyridine]
 | water soluble | CNC[C@H](O)[C@@H](O)[C@H](O)[C@H](O)CO.O=C(O)c1ccc(-c2cc3cccnc3c(-c3cccc4nonc34)n2)cc1 [Example 34, 6-(4-carboxyphenyl)-8-(4-benzo[c]furazanyl)-1,7-napthyridine: salt with N-methyl-D-glucamine]
